{"source": "patent US20090247555A1", "about": "“5,7-Disubstituted[1,3]Thiazolo[4,5-D]Pyrimidin-2(3H)-One Derivatives 258” (AstraZeneca AB, priority 2008, published 2009)", "key": {"[1]": {"target": "T1, CX3CR1 receptor (Homo sapiens, UniProt P49238)", "T1 construct": "host or cells: CHO K1 cells; membranes prepared in-house", "T1 sequence (P49238 1-355)": "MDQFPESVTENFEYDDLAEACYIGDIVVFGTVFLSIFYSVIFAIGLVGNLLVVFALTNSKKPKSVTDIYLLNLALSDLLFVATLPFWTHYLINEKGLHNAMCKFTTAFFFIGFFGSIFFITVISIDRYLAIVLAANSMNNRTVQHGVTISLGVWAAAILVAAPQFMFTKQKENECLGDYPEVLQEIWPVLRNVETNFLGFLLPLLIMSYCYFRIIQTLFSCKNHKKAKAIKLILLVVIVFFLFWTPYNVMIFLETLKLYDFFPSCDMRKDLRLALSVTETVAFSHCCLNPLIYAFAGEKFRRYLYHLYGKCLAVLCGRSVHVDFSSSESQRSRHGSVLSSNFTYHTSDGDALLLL", "test": "Fractalkine (CX3CR1) GTPgS inhibition assay (96 well)", "format": "biochemical", "conditions": "CX3CR1 CHO K1 membranes, inhibition of 35S-GTPγS signal generated by EC80 of fractalkine, triplicate", "description": "The activation of the CX3CR1 receptor by fractalkine can be detected using a GTPγS assay. ^35S-labelled GTPγS is added to the reaction (together with compounds and CX3CR1 CHO K1 membranes) to bind to the G-protein in the membranes instead of GTP upon activation of the receptor. Since ^35S-labelled GTPγS is non-hydrolysable the receptor will stay in its active state. The bound ^35S-labelled GTPγS is separated from free by vacuum filtration onto 96 well filters. In inhibition assay mode the receptor in the membranes will be activated with the EC80 of fractalkine and further the CX3CR1 antagonists will inhibit the signal generated by the EC80 of fractalkine.\nLigand: Fractalkine, PeproTech, cat no 300-31, 1 mg, −20° C. Diluted in dH2O+0.05% BSA to a stock concentration of 0.1 mM, Stored in −20° C.\n^35S-GTPγS, Perkin Elmer (NEN), Cat no NEG030H, Specific activity 1250 Ci/mmol, 1 mCi/ml, −20° C.\nMembranes: membranes are prepared inhouse from CX3CR1 CHO K1 cells purchased from Euroscreen. Protein concentration: 5.7 mg/ml, −80° C.\n• HEPES: Sigma H-3375, RT • MgCl2×6H2O: Merck, cat no 5833, RT • NaCl: Merck, cat no 6404, RT • GDP: −20° C., Sigma cat no G-7127, Diluted in dH2O to a stock concentration of 10 mM. • Stored in −20° C. • Gelatine type A: Sigma, cat no G2625, 1% stock in water (heating is necessary to dissolve gelatine) made fresh on the day of the experiment RT\n• Tris: Tris-HCl: Sigma, cat no T1503, RT • Tris-base: Sigma, cat no T3283, RT • MgCl2×6H2O: Merck, cat no 5833, RT • NaCl: Merck, cat no 6404, RT • Assay plates: 96 well, Nunc, 269620 • Filter: Printed Filtermat B, Wallac • Scintillator sheets: MeltiLex B, PerkinElmer\nAssay plates are prepared by CMT with 1 compound/plate. 2 μl compound with the highest concentration 3.3 mM diluted with a factor 3 in 10 steps. This gives a final assay concentration of 33 μM for the highest concentration.\n100 μl membranes (5 μg/well) diluted in 2× assay buffer is added to the assay plate.\n100 μl ^35S-GTPγS (final assay concentration: 0.00056 μCi/μl) diluted in dH2O with EC80 of fractalkine is then added. […]\nThe plate is read in a microbeta. […]"}, "[2]": {"tested_on": "human whole blood, adhesion to fractalkine", "test": "Human whole blood flow adhesion assay", "format": "cell-based", "conditions": "heparinised human whole blood, adhesion to recombinant human fractalkine under flow, 15 min preincubation", "description": "Flow adhesion assays were performed using a microfluidics system (Cellix Microfluidics SP1.0 platform) and 8-channel biochips (Cellix Vena 8 biochips). Channel 1 was used as control and channels 2 to 8 to evaluate seven different concentrations of antagonist. To 25 monitor adhesion to fractalkine, channels were first coated with 15 μl of anti-His Tag antibody at 25 μg/ml for 2 hours. Channels were then washed three times with 15 μl DPBS to remove unbound antibody. Subsequently, 15 μl of recombinant human fractalkine at 2.5 μg/ml was added to each channel and biochips were left at 4° C. overnight in a humidified atmosphere. The following day, channels were washed three times with 15 μl DPBS prior to blocking with 15 μl of BSA at 10 mg/ml for 30 minutes. Human whole blood was obtained by venipuncture using heparin as anti-coagulant. DMSO carrier or compounds in DMSO were added to 0.3 ml blood in 1.5 ml Eppendorf tubes followed by incubation at room temperature for 15 minutes. The Vena 8 biochip was placed on a microscope stage and channels were washed with RPMI 1640 medium containing 1% BSA in preparation for the assays. […] Adhered cells were subsequently quantified using DucoCell software (Cellix)."}}, "data": [{"smiles": "CC(C)CC(CO)Nc1nc(SC(C)c2ccccn2)nc2[nH]c(=O)sc12", "note": "(single isomer, unassigned; isomer 2) [Example 13]", "values": [{"measurement": "IC50", "setting": "[1]", "value": 9200, "unit": "nM"}]}, {"smiles": "CC(C)CC(CO)Nc1nc(SC(C)c2ccccn2)nc2[nH]c(=O)sc12", "note": "(single isomer, unassigned; isomer 1) [Example 12]", "values": [{"measurement": "IC50", "setting": "[2]", "value": 2400, "unit": "nM"}, {"measurement": "IC50", "setting": "[1]", "value": 1000, "unit": "nM"}]}, {"smiles": "CC(C)C[C@H](CO)Nc1nc(SC(C)c2ccccn2)nc2[nH]c(=O)sc12", "note": "(stereo partly drawn) [Example 1, 7-[(R)-1-hydroxy-4-methylpentan-2-ylamino]-5-[1-(pyridin-2-yl)ethylthio]thiazolo[4,5-d]pyrimidin-2(3H)-one]", "values": [{"measurement": "IC50", "setting": "[1]", "value": 2600, "unit": "nM"}]}]}
